Results: ChEMBL document CHEMBL3045364, “Synthesis, structure, and estrogenic activity of 2- and 3-substituted 2,3-dihydro-4H-1-benzopyran-4-ones” (2013)
Activity calls are given as the source filed them. The calls are words filed in the database; no cut-off is given here.

Assays:
[1] = biological target: T1, Estrogen receptor (Homo sapiens) (UniProt P03372); experiment: Displacement of [3H]E2 from Homo sapiens (human) recombinant ER-alpha by HAP binding assay
T1 sequence (whole entry): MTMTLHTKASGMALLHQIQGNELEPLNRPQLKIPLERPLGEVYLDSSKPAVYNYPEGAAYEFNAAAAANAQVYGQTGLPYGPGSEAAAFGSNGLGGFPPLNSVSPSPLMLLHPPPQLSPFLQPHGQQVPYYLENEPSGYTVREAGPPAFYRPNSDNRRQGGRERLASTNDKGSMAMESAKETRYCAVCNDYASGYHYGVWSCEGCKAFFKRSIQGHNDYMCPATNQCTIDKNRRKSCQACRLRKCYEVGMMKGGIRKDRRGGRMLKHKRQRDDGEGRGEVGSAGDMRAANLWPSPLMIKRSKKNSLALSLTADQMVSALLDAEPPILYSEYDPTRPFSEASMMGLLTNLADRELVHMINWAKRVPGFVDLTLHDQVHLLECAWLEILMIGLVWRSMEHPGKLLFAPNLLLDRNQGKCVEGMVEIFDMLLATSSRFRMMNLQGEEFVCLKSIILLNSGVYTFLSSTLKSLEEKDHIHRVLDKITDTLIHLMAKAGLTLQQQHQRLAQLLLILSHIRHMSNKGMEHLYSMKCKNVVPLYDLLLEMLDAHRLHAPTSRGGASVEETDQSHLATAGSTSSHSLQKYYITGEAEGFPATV

MVLN [2] = experiment: Estrogenic activity in Homo sapiens (human) MVLN cells assessed as induction of ERE-dependent transcription at 1 uM after 24 hr by luciferase reporter gene assay; format: functional
MVLN [3] = experiment: Estrogenic activity in Homo sapiens (human) MVLN cells assessed as induction of ERE-dependent transcription at 10 uM after 24 hr by luciferase reporter gene assay in presence of 0.1 uM antiestrogen, fulvestrant; format: functional, cell-based
MVLN [4] = experiment: Estrogenic activity in Homo sapiens (human) MVLN cells assessed as induction of ERE-dependent transcription at 10 uM after 24 hr by luciferase reporter gene assay; format: functional, cell-based

Row | SMILES | inhibition [1] | Activity (MVLN [2]) | Activity (MVLN [3]) | Activity (MVLN [4])
1 | Cc1ccc(/C=C2\COc3ccccc3C2=O)cc1 | inactive |  |  | 
2 | COc1cc(OC)c(/C=C2\COc3ccccc3C2=O)c(OC)c1 | inactive | 134% |  | 
3 | CN(C)c1ccc(/C=C2\COc3ccccc3C2=O)cc1 | inactive | 145% |  | 
4 | O=C1/C(=C/c2ccccc2)COc2ccccc21 | inactive | inactive |  | 
5 | O=C1/C(=C/c2ccc(O)cc2)COc2ccccc21 | inactive | 236% | inactive | Active

Further lines, with some results ahead:

Row | inhibition [1] | SMILES | Activity (MVLN [2]) | Activity (MVLN [3]) | Activity (MVLN [4])
6 | inactive | COc1ccc2c(c1)OC1(CCC(c3ccccc3)CC1)CC2=O (stereo not drawn) |  |  | 
7 | inactive | COc1ccc2c(c1)OC1(CCCCC1)CC2=O | inactive |  | 
8 | inactive | COc1ccc2c(c1)OC1(CCC(C(C)(C)C)CC1)CC2=O (stereo not drawn) |  |  | 
9 | inactive | O=C1CC2(CCCCC2)Oc2cc(O)ccc21 | 279% | inactive | Active
10 | inactive | COc1cccc(/C=C2\COc3ccccc3C2=O)c1 | 243% | inactive | Active
